Reference: patent publication US9302999B2, “Substituted triazoles as herbicides” (E. I. DU PONT DE NEMOURS AND COMPANY, priority 2012, dated 2016)

Columns and labels:
Format in all cases: in vivo
[1] = system: velvetleaf (Abutilon theophrasti); test: Test A pre-/postemergence: velvetleaf; conditions: for Velvetleaf plant response rating: Postemergence; for Plant response rating, Velvetleaf: Preemergence
Text: (§1) Seeds of barnyardgrass (Echinochloa crus-galli), crabgrass, large (large crabgrass, Digitaria sanguinalis), foxtail, giant (giant foxtail, Setaria faberii), morningglory (Ipomoea spp.), pigweed (Amaranthus retroflexus), velvetleaf (Abutilon theophrasti), wheat (Triticum aestivum), and corn (Zea mays) were planted into a blend of loam soil and sand and treated preemergence with a directed soil spray using test chemicals formulated in a non-phytotoxic solvent mixture which included a surfactant. At the same time these species were also treated with postemergence applications of test chemicals formulated in the same manner.
(§2) Plants ranged in height from two to ten cm and were in the one- to two-leaf stage for the postemergence treatment. Treated plants and untreated controls were maintained in a greenhouse for approximately ten days, after which time all treated plants were compared to untreated controls and visually evaluated for injury. Plant response ratings, summarized in Table A, are based on a 0 to 100 scale where 0 is no effect and 100 is complete control. A dash (-) response means no test result.

[2] = system: crabgrass, large (large crabgrass, Digitaria sanguinalis); test: Test A pre-/postemergence: crabgrass, large; conditions: for Crabgrass, Large plant response rating: Postemergence; for Plant response rating, Crabgrass, Large: Preemergence
Text: as §1, §2

[3] = system: pigweed (Amaranthus retroflexus); test: Test A pre-/postemergence: pigweed; conditions: for Pigweed plant response rating: Postemergence; for Plant response rating, Pigweed: Preemergence
Text: as §1, §2

[4] = system: barnyardgrass (Echinochloa crus-galli); test: Test A pre-/postemergence: barnyardgrass; conditions: for Barnyardgrass plant response rating: Postemergence; for Plant response rating, Barnyardgrass: Preemergence
Text: as §1, §2

[5] = system: foxtail, giant (giant foxtail, Setaria faberii); test: Test A pre-/postemergence: foxtail, giant; conditions: for Foxtail, Giant plant response rating: Postemergence; for Plant response rating, Foxtail, Giant: Preemergence
Text: as §1, §2

corn (Zea mays) = test: Test A pre-/postemergence: corn; conditions: for Corn plant response rating: Postemergence; for Plant response rating, Corn: Preemergence
Text: as §1, §2

[6] = system: wheat (Triticum aestivum); test: Test A pre-/postemergence: wheat; conditions: for Wheat plant response rating: Postemergence; for Plant response rating, Wheat: Preemergence
Text: as §1, §2

[7] = system: morningglory (Ipomoea spp.); test: Test A pre-/postemergence: morningglory; conditions: for Morningglory plant response rating: Postemergence; for Plant response rating, Morningglory: Preemergence
Text: as §1, §2

[8] = 125 g ai/ha, 0 to 100 scale, 0 is no effect, 100 is complete control
[9] = 500 g ai/ha, visual rating on 0 to 100 scale (0 no effect, 100 complete control), approximately ten days
[10] = 125 g ai/ha, 0 to 100 scale where 0 is no effect and 100 is complete control
[11] = 500 g ai/ha, 0 to 100 scale (0 no effect, 100 complete control)
[12] = 500 g ai/ha, 0 to 100 scale, 0 is no effect, 100 is complete control
[13] = 125 g ai/ha, 0 to 100 scale (0 no effect, 100 complete control)

| SMILES | Velvetleaf plant response rating [1, 8] | Velvetleaf plant response rating [1, 9] | Plant response rating, Velvetleaf [1, 10] | Crabgrass, Large plant response rating [2, 8] | Crabgrass, Large plant response rating [2, 9] | Pigweed plant response rating [3, 8] | Pigweed plant response rating [3, 9] | Plant response rating, Pigweed [3, 10] | Barnyardgrass plant response rating [4, 8] | Barnyardgrass plant response rating [4, 9] | Foxtail, Giant plant response rating [5, 8] | Foxtail, Giant plant response rating [5, 9] | Plant response rating, Foxtail, Giant [5, 10] | Corn plant response rating (corn (Zea mays); [8]) | Corn plant response rating (corn (Zea mays); [9]) | Wheat plant response rating [6, 8] | Wheat plant response rating [6, 9] | Plant response rating, Wheat [6, 10] | Morningglory plant response rating [7, 8] | Morningglory plant response rating [7, 9] | further results |
| --- | --- | --- | --- | --- | --- | --- | --- | --- | --- | --- | --- | --- | --- | --- | --- | --- | --- | --- | --- | --- | --- |
| Cc1nn(-c2ccc(F)cc2)nc1Cn1cnc(C(F)(F)F)c1 [Compound 112] | 50 | 60 | 0 | 50 | 90 | 90 | 100 | 90 | 0 | 30 | 20 | 80 | 60 | 20 | 20 | 10 | 30 | 0 | 60 | 100 | Plant response rating, Velvetleaf [1, 11]: 20; Plant response rating, Crabgrass, Large [2, 10]: 80; Plant response rating, Crabgrass, Large [2, 11]: 100; Plant response rating, Pigweed [3, 11]: 100; Plant response rating, Barnyardgrass [4, 10]: 0; Plant response rating, Barnyardgrass [4, 11]: 40; Plant response rating, Foxtail, Giant [5, 11]: 90; Plant response rating, Corn (corn (Zea mays); [10]): 0; Plant response rating, Corn (corn (Zea mays); [11]): 0; Plant response rating, Wheat [6, 11]: 0; Plant response rating, Morningglory [7, 10]: 0; Plant response rating, Morningglory [7, 11]: 20 |
| Cc1nn(-c2ccc(F)cc2)nc1Oc1cccc(OC(F)(F)F)c1 [Compound 100] | 30 | 70 | 0 | 60 | 80 | 80 | 90 | 10 | 10 | 30 | 50 | 70 | 20 | 10 | 20 | 0 | 20 | 0 | 90 | 90 | Plant response rating, Velvetleaf [1, 12]: 0; Plant response rating, Crabgrass, Large [2, 13]: 10; Plant response rating, Crabgrass, Large [2, 12]: 90; Plant response rating, Pigweed [3, 12]: 90; Plant response rating, Barnyardgrass [4, 13]: 0; Plant response rating, Barnyardgrass [4, 12]: 20; Plant response rating, Foxtail, Giant [5, 12]: 70; Plant response rating, Corn (corn (Zea mays); [13]): 0; Plant response rating, Corn (corn (Zea mays); [12]): 0; Plant response rating, Wheat [6, 12]: 0; Plant response rating, Morningglory [7, 10]: 0; Plant response rating, Morningglory [7, 12]: 0 |
| OCc1nn(-c2ccc(C(F)(F)F)cc2)nc1Oc1cccc(C(F)(F)F)c1 [Compound 110] | 30 | 60 | 0 | 50 | 70 | 70 | 100 | 0 | 20 | 30 | 20 | 30 | 0 | 20 | 30 | 10 | 30 | 0 | 90 | 100 | Plant response rating, Velvetleaf [1, 12]: 10; Plant response rating, Crabgrass, Large [2, 13]: 0; Plant response rating, Crabgrass, Large [2, 12]: 20; Plant response rating, Pigweed [3, 12]: 50; Plant response rating, Barnyardgrass [4, 13]: 0; Plant response rating, Barnyardgrass [4, 12]: 0; Plant response rating, Foxtail, Giant [5, 12]: 20; Plant response rating, Corn (corn (Zea mays); [13]): 0; Plant response rating, Corn (corn (Zea mays); [12]): 0; Plant response rating, Wheat [6, 12]: 0; Plant response rating, Morningglory [7, 10]: 10; Plant response rating, Morningglory [7, 12]: 20 |
